Laboratory results published in the supplement of paper PMC5908809.

Experiments:
[1] = tested on: KHYG-1 (IL-2 2.5 ng/mL); test: drug sensitivity score (DSS) (DSS units); higher = more sensitive; extreme values may be limits of the assay; conditions: 72 h
[2] = tested on: DERL-7 (IL-2 2.5 ng/mL); test: as above; conditions: 72 h
[3] = tested on: KAI3 (IL-2 2.5 ng/mL); test: as above; conditions: 72 h
[4] = tested on: normal primary NK cells, pool 1 (3 donors), resting (IL-2 0 ng/mL); test: as above; conditions: 72 h
[5] = tested on: normal primary NK cells, pool 1 (3 donors) (IL-2 2.5 ng/mL); test: as above; conditions: 72 h
[6] = tested on: NKL (IL-2 2.5 ng/mL); test: as above; conditions: 72 h
[7] = tested on: normal primary NK cells, pool 2 (3 donors) (IL-2 2.5 ng/mL); test: as above; conditions: 72 h
[8] = tested on: IMC-1 (IL-2 20 ng/mL); test: as above; conditions: 72 h
[9] = tested on: NK-YS (IL-2 2.5 ng/mL); test: as above; conditions: 72 h
[10] = tested on: NK-92 (IL-2 2.5 ng/mL); test: as above; conditions: 72 h
[11] = tested on: SNK-6 (IL-2 2.5 ng/mL); test: as above; conditions: 72 h
[12] = tested on: YT (IL-2 2.5 ng/mL); test: as above; conditions: 72 h
[13] = tested on: normal primary NK cells, pool 3 (3 donors) (IL-2 2.5 ng/mL); test: as above; conditions: 72 h
[14] = tested on: normal NK cells expanded with K562-aAPC; test: percent inhibition of viability; higher = more inhibition; conditions: 72 h, IL-2 2.5 ng/mL
Experimental: (§1)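 Drug sensitivity and resistance testing on K562-aAPC-expanded normal NK cells: 5 concentrations (10-fold steps over a 10,000-fold range), 72 h at 37 °C, viability by CellTiter-Glo normalised to DMSO and benzethonium chloride controls; DSS from the fitted curve.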

[15] = tested on: KHYG-1 (IL-2 2.5 ng/mL); test: as above; conditions: 72 h
[16] = tested on: DERL-7 (IL-2 2.5 ng/mL); test: as above; conditions: 72 h
[17] = tested on: KAI3 (IL-2 2.5 ng/mL); test: as above; conditions: 72 h
[18] = tested on: normal primary NK cells, pool 1 (3 donors), resting (IL-2 0 ng/mL); test: as above; conditions: 72 h
[19] = tested on: normal primary NK cells, pool 1 (3 donors) (IL-2 2.5 ng/mL); test: as above; conditions: 72 h
[20] = tested on: NKL (IL-2 2.5 ng/mL); test: as above; conditions: 72 h
[21] = tested on: normal primary NK cells, pool 2 (3 donors) (IL-2 2.5 ng/mL); test: as above; conditions: 72 h
[22] = tested on: IMC-1 (IL-2 20 ng/mL); test: as above; conditions: 72 h
[23] = tested on: NK-YS (IL-2 2.5 ng/mL); test: as above; conditions: 72 h
[24] = tested on: NK-92 (IL-2 2.5 ng/mL); test: as above; conditions: 72 h
[25] = tested on: SNK-6 (IL-2 2.5 ng/mL); test: as above; conditions: 72 h
[26] = tested on: YT (IL-2 2.5 ng/mL); test: as above; conditions: 72 h
[27] = tested on: normal primary NK cells, pool 3 (3 donors) (IL-2 2.5 ng/mL); test: as above; conditions: 72 h
[28] = tested on: normal NK cells expanded with K562-aAPC; test: drug sensitivity score (DSS) (DSS units); higher = more sensitive; extreme values may be limits of the assay; conditions: 72 h; IL-2 2.5 ng/mL
Experimental: as §1

CCn1c(C(=O)N(C2CC2)C2CC2)cc2c3c(ncn3C)c(Nc3cc(C)n(C)n3)nc21 (max concentration tested 10000 nM)
Conditions | drug sensitivity score
[1] | 5.93
[2] | 4.87
[3] | 14.5
[4] | 0
[5] | 3.85
[6] | 8.84
[7] | 3.12
[8] | 0
[9] | 3.29
[10] | 4.85
[11] | 0
[12] | 4.02
[13] | 2.38
[28] | 5.99

percent inhibition of viability [%]
Conditions | 1 nM | 10 nM | 100 nM | 1000 nM | 10000 nM
[14] | 5.29 | 4.9 | 4.54 | 16 | 63.8
[15] | 4.48 | 5.02 | 4.17 | 12.6 | 69.7
[16] | 0.43 | 0.75 | 1.97 | 12.3 | 54.1
[17] | 14.1 | 21.2 | 27.8 | 44.8 | 76.3
[18] | -6.63 | -4.84 | -10.8 | 4.13 | 5.86
[19] | -3.85 | -1.69 | -6.9 | 11.7 | 41.6
[20] | 0.96 | -1.04 | 3.26 | 41.2 | 70.4
[21] | -2.38 | -1.43 | 0.57 | 3.6 | 49
[22] | -1.17 | 2.69 | 0.12 | -11.6 | -7.89
[23] | 4.8 | 6.33 | 4.46 | 16.1 | 36.6
[24] | 4.07 | 7.86 | -2 | 9.2 | 60.7
[25] | -4.81 | 22.8 | -3.45 | -16.6 | 7.74
[26] | 9.25 | 9.54 | 7.25 | 14.5 | 46.5
[27] | 5.51 | -1.86 | 3.33 | 6.54 | 30.7

COC[C@H](NC(=O)c1cnc(C)s1)C(=O)N[C@@H](COC)C(=O)N[C@@H](Cc1ccccc1)C(=O)[C@@]1(C)CO1 [Oprozomib] (max concentration tested 2500 nM)
Conditions | drug sensitivity score
[1] | 20.7
[2] | 28.6
[3] | 24.4
[4] | 25
[5] | 22
[6] | 20.2
[7] | 25.4
[8] | 18.1
[9] | 23.7
[10] | 22.8
[11] | 20.4
[12] | 20.6
[13] | 24.2
[28] | 23.4

percent inhibition of viability [%]
Conditions | 0.25 nM | 2.5 nM | 25 nM | 250 nM | 2500 nM
[14] | -1.45 | 0.37 | 40.2 | 101 | 102
[15] | -7.33 | -2.59 | 15.4 | 108 | 110
[16] | -5.62 | 7.77 | 81.9 | 101 | 101
[17] | -8.21 | -2.86 | 52.1 | 105 | 108
[18] | -25.2 | 0.23 | 62.4 | 92.9 | 97.7
[19] | -9.35 | 5.43 | 36 | 97.7 | 99.8
[20] | -18 | -8.51 | 12.1 | 107 | 110
[21] | -5.27 | 3.49 | 62.8 | 94.6 | 99.5
[22] | -7.29 | -3.63 | 0.39 | 101 | 101
[23] | -6.41 | -1.88 | 43.6 | 106 | 109
[24] | -20.8 | 3.65 | 34.1 | 107 | 110
[25] | -7.89 | -7.58 | 14.6 | 101 | 101
[26] | -8.11 | -6.26 | 14.6 | 106 | 110
[27] | -7.05 | -2.21 | 50.4 | 99 | 100

O=P1(NCCCl)OCCCN1CCCl (configuration not stated) [Ifosfamide] (max concentration tested 10000 nM)
Conditions | drug sensitivity score
[1] | 0
[2] | 0
[3] | 0
[4] | 0.02
[5] | 0
[6] | 0
[7] | 0
[8] | 0
[9] | 0
[10] | 0
[11] | 0
[12] | 0
[13] | 0
[28] | 0

percent inhibition of viability [%]
Conditions | 1 nM | 10 nM | 100 nM | 1000 nM | 10000 nM
[14] | -2.46 | -7.15 | -2.89 | -5.04 | -1.58
[15] | -2.87 | -4.29 | -7.54 | -5.28 | -6.85
[16] | -5.51 | -7.54 | -1.33 | -3.22 | -6.83
[17] | -7.61 | -11.2 | -10.2 | -6.62 | -0.66
[18] | -18.3 | -6.52 | 1.44 | -5.18 | 12.7
[19] | -11.2 | -7.35 | -2.79 | -2.71 | 1.61
[20] | -15.9 | -21.4 | -20.8 | -20.4 | -25.2
[21] | -7.91 | -9.22 | -9.46 | -8.83 | -4.62
[22] | -7.45 | -2.99 | -8.91 | -4.46 | -9.5
[23] | -1.93 | -4.42 | -4.13 | 1.8 | -4.59
[24] | -16.3 | -6.46 | -7.42 | -21.1 | -17.7
[25] | 9.44 | 6.95 | -7.05 | -1.13 | -14.1
[26] | -4.47 | -6.22 | -6.55 | -4.33 | -5.88
[27] | -13.4 | -7.36 | -10.1 | -8.46 | -1.46
